“Also recorded” adds a separate entry of the source. Where two headings read alike, the source gives them in different places.
Experiments:
H661 = experiment: WST-1 cytotoxicity, H661; assay type: cell-based, human; settings: Homo sapiens, NCI-H661, 24 h
Protocol: (§1) Two different cytotoxicity/proliferation kit was used in this study i.e., WST-1 proliferation assay kit (Roche, Indianapolis, IN, USA; Cat #28620000) and Cell-titer Glo-luminescent cell viability assay (Promega, WI, USA; Cat #0000348721). Majority of the cell proliferation/cytotoxicity experiments were performed with WST-1 assay. Briefly, cells were seeded at the indicated density for 24 h in 96 well plate, media was replaced, and subsequently treated with the test compounds at different doses. […] Cell titer Glo-assay was additionally performed in certain cases to validate the results from WST-1 assay as outlined above following manufacturer's instructions and luminescence was measured using a FLx100 Luminometer (CLARIOSTAR®, Ortenbery, Germany). […] Other proliferation/cytotoxicity assays were also carried out i.e., Quant™-iT PicoGreen ds DNA assay kit (Thermo Scientific, Rockwood, TN, USA, P7589) following manufacturer's instructions, Trypan blue (Sigma, Ayrshire, UK, T8154) and acid phosphatase assay for validation of cytotoxicity/proliferation data from other assays.

H1299 cells = experiment: Cellular total selenium uptake by ICP-MS; assay type: cell-based, human; settings: 6 h
Protocol: H1299 cells were treated with the indicated concentrations of different selenium compounds either alone or in combinations for 6 h. At the end of the treatment, cells were washed 3-times with cold PBS and collected. Cell pellets were digested and the total selenium concentration was measured using ICP-MS. […] Increased selenium delivery to the cells by diphenyl diselenide warrants increased cytotoxicity in cancer cells, as outlined before.

[1] = test system: GSH and CySH in HL60 cells; experiment: Intracellular and extracellular thiols by HPLC; assay type: cell-based, human; settings: listed as DPDS
Protocol: HPLC was performed as described by Luo et al. 21. Samples and standards were derivatized using monobromobimane (Calbiochem, La Jolla, CA) in sodium N-ethylmorpholine. Aliquots of the derivatized samples were filtered using a 0.22 μm Millipore filter. Glutathione (GSH), cysteine (CySH) and g-glutamylcysteine (7-GC) concentrations were then analyzed using high-performance liquid chromatography (HPLC). Both the total and reduced forms were measured. The HPLC separation, of the thiol-bimane adducts, was achieved on a column (4.5×150 mm) packed with 3-μm octadecyl-silica reversed-phase resin (Supelco, Inc., Bellefonte, PA) followed by fluorescent detection at excitation 394 nm and emission 480 nm (Millipore Co., Milford, MA). The system consisted of a Waters 625 LC pump system, a Waters 470 scanning fluorescence detector, and a Waters 717 Ultra WISP sample processor (Millipore, Milford, MA). Elution solvent A was 7.0% aqueous acetonitrile containing 0.25% acetic acid and perchloric acid; the final pH was adjusted to 3.76 with sodium hydroxide. Elution solvent B was 75% acetonitrile. The flow rate was 1.0 ml/min. The derivatives of GSH, CySH and 7-GC were then quantified based on peak areas and compared with standards. The CV for this method is 2.6%.

[2] = test system: splenocytes comprising normal and leukemic cells; experiment: Frequency of normal and leukemic splenocytes by flow cytometry (CD45.1); settings: 50.0 μM; 67 h
Protocol: Primary mice leukemic cells (CD45.1 background) bearing human MLL-AF9 oncogene were transplanted into healthy secondary mice (CD45.2 background). Following leukemia development in these mice, spleens were collected following euthanasia. Splenocytes, comprising both normal and leukemic cells, were isolated and cultured ex vivo in 24 well plates (1.5×10^6 cells/0.5 ml/well) for 12 h prior to exposing with the indicated compounds for another 67 h. At the end of the exposure, relative frequency of normal (CD45.1 negative) and leukemic (CD45.1 positive) cells were determined using flow cytometry.

A549 = experiment: WST-1 cytotoxicity, A549; assay type: cell-based, human; settings: Homo sapiens
Protocol: as §1

[3] = test system: extracellular reduced thiols; experiment: Extracellular thiols measurement (DTDP method); assay type: cell-based, human
Protocol: Cell culture media was collected at specified time points after incubation with the respective compounds as described in the respective figure legends and extracellular total thiols were measured using the DTDP method 19. The protocol was adjusted to 96-well plate format. […] Absorbance was measured at 324 nm in a spectrophotometer (PowerWave HT, BioTek, VT, USA). The assay mixture with fresh media was used as a blank.

SLC7A11 = SLC7A11 mRNA expression (qRT-PCR); settings: HL60 and H1299 cells; listed as DPDS
HMOX and NQO1 = experiment: mRNA expression of NFE2L2 target genes; assay type: cell-based, human; settings: early time point
HL60 = experiment: WST-1 cytotoxicity and synergy analysis, HL60; assay type: cell-based, human; settings: Homo sapiens, HL-60
Protocol: as §1

[4] = test system: Primary Human hepatocytes
MCF-7 = experiment: WST-1 cytotoxicity, MCF-7; assay type: cell-based, human; settings: Homo sapiens
Protocol: as §1

H1299 = experiment: WST-1 cytotoxicity, H1299; assay type: cell-based, human; settings: Homo sapiens, NCI-H1299
Protocol: as §1

[5] = test system: 23 different human cell lines of multiple cancer origins; experiment: Cytotoxicity across the cancer cell line panel (summary statements); assay type: cell-based; settings: 5 μM; cancer cell lines of Table 2
Protocol: as §1

[6] = test system: cystathionine gamma lyase; experiment: RNA-sequencing; assay type: cell-based; settings: RNA-sequencing data
NB4 = experiment: WST-1 cytotoxicity, NB4; assay type: cell-based, human; settings: Homo sapiens, NB-4
Protocol: as §1

AML193 = experiment: WST-1 cytotoxicity, AML193; assay type: cell-based; settings: Homo sapiens; AML193; alone; 24 h; read-out: Calculated IC50 values
Protocol: as §1

8-MGBA = experiment: WST-1 cytotoxicity, 8-MGBA; assay type: cell-based; settings: Homo sapiens, 8-MG-BA; 8-MGBA; alone; 24 h; read-out: Calculated IC50 values
Protocol: as §1

SNB-19 = experiment: WST-1 cytotoxicity, SNB-19; assay type: cell-based; settings: Homo sapiens; SNB-19; alone; 24 h; read-out: Calculated IC50 values
Protocol: as §1

HeLa = experiment: WST-1 cytotoxicity, HeLa; assay type: cell-based; settings: Homo sapiens, alone, 24 h, read-out: Calculated IC50 values
Protocol: as §1

SHSY5-SY = experiment: WST-1 cytotoxicity, SHSY5-SY; assay type: cell-based; settings: Homo sapiens; SHSY5-SY; alone; 24 h; read-out: Calculated IC50 values
Protocol: as §1

[7] = Reported oral administration of selenocystine in humans; assay type: in vivo, human; settings: assuming 15% of 100 mg daily dose bioavailable, blood volume 5 L
HUH7 = experiment: WST-1 cytotoxicity, HUH7; assay type: cell-based; settings: Homo sapiens, Huh-7; HUH7; alone; 24 h; read-out: Calculated IC50 values
Protocol: as §1

Hep3B = experiment: WST-1 cytotoxicity, Hep3B; assay type: cell-based; settings: Homo sapiens, alone, 24 h, read-out: Calculated IC50 values
Protocol: as §1

[8] = test system: Primary Human hepatocytes; experiment: WST-1 cytotoxicity, primary human hepatocytes; settings: Hepatocyte, 24 h, read-out: Calculated IC50 values
[9] = orally, 50-200 mg/day for 49 days; human; cited from earlier work
U1906E = experiment: WST-1 cytotoxicity, U1906E; assay type: cell-based; settings: Homo sapiens; U1906E; alone; 24 h; read-out: Calculated IC50 values
Protocol: as §1

IGROV1 = experiment: WST-1 cytotoxicity, IGROV1; assay type: cell-based, human; settings: IGROV1; alone; 24 h; dose up to 200 μM
Protocol: as §1

A375 = experiment: WST-1 cytotoxicity, A375; assay type: cell-based; settings: Homo sapiens, A-375; A375; alone; 24 h; read-out: Calculated IC50 values
Protocol: as §1

PANC-1 = experiment: WST-1 cytotoxicity, PANC-1; assay type: cell-based; settings: Homo sapiens; PANC-1; alone; 24 h; read-out: Calculated IC50 values
Protocol: as §1

LS174T = experiment: WST-1 cytotoxicity, LS174T; assay type: cell-based; settings: Homo sapiens, alone, 24 h, read-out: Calculated IC50 values
Protocol: as §1

HepG2 = experiment: WST-1 cytotoxicity, HepG2; assay type: cell-based; settings: Homo sapiens; HepG2; alone; 24 h; read-out: Calculated IC50 values
[10] = test system: Primary peripheral blood mononuclear cells; experiment: WST-1 cytotoxicity, primary PBMCs; settings: Homo sapiens, PBMC, 24 h, read-out: Calculated IC50 values
U1906L = experiment: WST-1 cytotoxicity, U1906L; assay type: cell-based; settings: Homo sapiens; U1906L; alone; 24 h; read-out: Calculated IC50 values
Protocol: as §1

THP-1 = experiment: WST-1 cytotoxicity, THP-1; assay type: cell-based; settings: Homo sapiens; THP-1; alone; 24 h; read-out: Calculated IC50 values
Protocol: as §1

[11] = Toxicity in black mice (C57BL/6), 3 weeks; assay type: in vivo; settings: sodium selenite or selenocystine 3 mg/kg, alone or with diphenyl diselenide 50 and 100 mg/kg
Protocol: Black mice (C57BJ/6) mice were treated perorally every second day with either vehicle (canola oil) or diphenyl diselenide at two different dose levels (50 and 100 mg/kg body weight) for 3 weeks. Final body weight and weight of the major organs were measured at necropsy.
Black mice (C57BJ/6) mice were treated with vehicle (PBS i.p. and canola oil p.o.), sodium selenite (3 mg/kg body weight), selenocystine (3 mg/kg body weight), or in combinations with two different doses of diphenyl diselenide (50 and 100 mg/kg body weight) for 3 weeks. Final body weight and weight of the major organs were measured at necropsy.

OV2008 = experiment: WST-1 cytotoxicity, OV2008; assay type: cell-based; settings: Homo sapiens; OV2008; alone; 24 h; read-out: Calculated IC50 values
Protocol: as §1

c1ccc([Se][Se]c2ccccc2)cc1 [Diphenyl diselenide, diphenyl diselenide]
IC50 (H661; H661 (Lung), compound alone, '>' = dose approximation, read-out: IC50 values): 47.2 µM | selenium uptake from sodium selenite or selenocystine (H1299 cells): dramatically increases selenium uptake | intracellular GSH levels and extracellular CySH levels [1]: increased levels of intracellular GSH; also recorded: increases | frequency of either normal or leukemic cells [2]: marginal inhibitory effect | IC50 (A549; A549 (Lung), compound alone, 24 h, '>' = dose approximation, read-out: IC50 values): 91.1 µM | extracellular reduced thiols ([3]; HEK293 ATF4 reporter cells, 5.0 μM): no changes | extracellular reduced thiols ([3]; all the tested cell lines, H1299 and HL60): highly effective | SLC7A11 expression (SLC7A11): Increased SLC7A11 expression; also recorded: potent inducer | expression of HMOX and NQO1 (HMOX and NQO1): significantly induced | IC50 (HL60; HL60 (Leukemia), compound alone, 24 h, '>' = dose approximation, read-out: IC50 values): 38.4 µM | toxicity to normal human cells [4]: non-toxic | IC50 (MCF-7; MCF7 (Breast), compound alone, 24 h, '>' = dose approximation, read-out: IC50 values): 42.7 µM | IC50 (H1299; H1299 (Lung), compound alone, 24 h, '>' = dose approximation, read-out: IC50 values): 26.2 µM | toxicity at the specified dose [5]: non-toxic | expression of cystathionine gamma lyase [6]: increased | IC50 (NB4; NB4 (Leukemia), compound alone, 24 h, '>' = dose approximation, read-out: IC50 values): 39.5 µM

N[C@@H](C[Se][Se]C[C@H](N)C(=O)O)C(=O)O [Selenocystine, selenocystine]
IC50 (AML193): 47 µM | IC50 (H661; H661, alone, read-out: Calculated IC50 values): 55.7 µM | IC50 (8-MGBA): 49.7 µM | IC50 (SNB-19): 78.7 µM | IC50 (HeLa): 5.78 µM | IC50 (SHSY5-SY): 115 µM | IC50 (A549; A549, alone, 24 h, read-out: Calculated IC50 values): 8.7 µM | IC50 (A549; A549, alone, read-out: Calculated IC50 values of selenocystine): 8.7 µM | maximum plasma concentration (conservative estimation) [7]: 17.8 µM | IC50 (HUH7): 92.7 µM | IC50 (Hep3B): 74.7 µM | IC50 [8]: 300 µM | drug-induced toxic effects [9]: no signs of drug-induced toxic effects were reported | IC50 (U1906E): 2.18 µM | IC50 (HL60; HL60, alone, 24 h, read-out: Calculated IC50 values): 22.6 µM | IC50 (HL60; HL60, alone, read-out: Calculated IC50 values of selenocystine): 22.6 µM | Calculated IC50 values (IGROV1): Non-toxic* | IC50 (A375): 8.6 µM | IC50 (PANC-1): 18.5 µM | IC50 (LS174T): 3.88 µM | IC50 (HepG2): 12.4 µM | IC50 (MCF-7; MCF7, MCF-7, alone, 24 h, read-out: Calculated IC50 values): 34.9 µM | IC50 (MCF-7; MCF7, MCF-7, alone, read-out: Calculated IC50 values of selenocystine): 34.9 µM | IC50 [10]: 35.4 µM | IC50 (H1299; H1299, alone, 24 h, read-out: Calculated IC50 values): 22.7 µM | IC50 (H1299; H1299, alone, read-out: Calculated IC50 values of selenocystine): 22.7 µM | IC50 (U1906L): 17.8 µM | IC50 (THP-1): 0.92 µM | toxic effects (body and organ weight at necropsy) [11]: No demonstrated toxic effects could be observed | IC50 (NB4; NB4, alone, 24 h, read-out: Calculated IC50 values): 44.1 µM | IC50 (NB4; NB4, alone, read-out: Calculated IC50 values of selenocystine): 44.1 µM | IC50 (OV2008): 6.98 µM
